We go through 14 compounds from ChEMBL document CHEMBL1201862, “PubChem BioAssay data set” (2004).

As usually defined, the GI50 is the concentration giving 50% growth inhibition.

Molecules are shown by their SMILES.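 Interpolation was linear, between the two tested concentrations surrounding the appropriate level; five concentrations were tested over 48 hours in 96-well plates. Here, GI50 denotes the concentration required for 50% inhibition of growth.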 Active and inactive are the calls of the source. Cut-off read from the data, not from the text of the source: active = GI50 up to about 1.1 µM and inactive = higher. A value given as a limit tells only on which side of the number the result lay.

Among the test systems are A498; CAKI-1; HCT-15; KM-20L2; MCF7; NCI-H226; NCI/ADR-RES; RPMI-8226; ACHN; M14; SR; 786-0; BT-549; DU-145; Hs-578T; MDA-MB-231; MDA-MB-435; MDA-N; PC-3; T47D.
Test in all cases: DTP human tumour cell line panel, 48 h

With `N/C(=N\O)N/N=C/c1ncccc1O`, the GI50 with A498 was 35.7 µM (inactive); in the experiment on CAKI-1, 22.4 µM (inactive); in the experiment on HCT-15, 4.66 µM; in the experiment on KM-20L2 it was 10.4 µM (inactive); in the experiment on MCF7, 2.07 µM (inactive); with NCI-H226, 18.7 µM (inactive). For the same compound, the GI50 with NCI/ADR-RES was 8.73 µM (inactive); in the experiment with RPMI-8226, 1.83 µM (inactive).

`CC12CCC(=O)N1c1cnccc1N2` (stereo not given): the GI50 in the experiment with A498 was > 100 µM (inactive); with ACHN, > 100 µM (inactive); in the experiment on CAKI-1, > 100 µM (inactive); with HCT-15, greater than 100 µM; in the experiment with KM-20L2, > 100 µM (inactive); with M14, > 100 µM (inactive). Besides, the GI50 in the experiment on RPMI-8226 and in the experiment with SR was > 100 µM (inactive) in each case.

As to `CC(=O)OCCOCn1cc(C=O)c2ccccc21`, the GI50 in the experiment on 786-0 was > 100 µM (inactive); in the experiment on A498 it was 1.95 µM (inactive); in the experiment on ACHN it was > 100 µM (inactive); in the experiment on BT-549, > 100 µM (inactive); in the experiment on CAKI-1 it was > 100 µM (inactive); in the experiment on DU-145, > 100 µM (inactive). Moreover, the GI50 with HCT-15 was greater than 100 µM; in the experiment on Hs-578T it was > 100 µM (inactive); with M14, > 100 µM (inactive); with MCF7 it was > 100 µM (inactive); in the experiment on MDA-MB-231, > 100 µM (inactive); in the experiment with MDA-MB-435, > 100 µM (inactive). Further, the GI50 with MDA-N, with NCI/ADR-RES, with PC-3, in the experiment on RPMI-8226, with SR and in the experiment on T47D was > 100 µM (inactive) throughout.

Regarding `CCCCC(CC)C(=O)Oc1ccc(C(=O)c2ccccc2)c(O)c1` (stereo not given), the GI50 was 45.9 µM (inactive) with A498; 48.1 µM (inactive) with ACHN; 39.1 µM (inactive) in the experiment with BT-549; 43.5 µM (inactive) with CAKI-1; 57 µM (inactive) with DU-145; 40.1 µM with HCT-15. For the same compound, the GI50 in the experiment with Hs-578T is 20.6 µM (inactive); with M14, 38.5 µM (inactive); in the experiment with MCF7 it was 60.4 µM (inactive); in the experiment with MDA-MB-231, > 100 µM (inactive); with MDA-MB-435, 35.8 µM (inactive); with MDA-N it was 41.4 µM (inactive). Further, the GI50 in the experiment on NCI/ADR-RES was 35.9 µM (inactive); in the experiment with PC-3, 51.5 µM (inactive); in the experiment with RPMI-8226 it was 15.1 µM (inactive); in the experiment with T47D, 45.7 µM (inactive).

Regarding `N#C/C(=C\c1ccc(Cl)cc1)c1nc2ccccc2c(=O)[nH]1`, the GI50 in the experiment with 786-0 is 44.4 µM (inactive); in the experiment with ACHN it was 65.8 µM (inactive); in the experiment on BT-549, 23.4 µM (inactive); in the experiment with CAKI-1, > 100 µM (inactive); in the experiment on DU-145 it was > 100 µM (inactive); in the experiment on HCT-15, greater than 100 µM. Moreover, the GI50 with Hs-578T is 17.9 µM (inactive); in the experiment with M14 it was > 100 µM (inactive); with MCF7 it was > 100 µM (inactive); with MDA-MB-231 it was 33.8 µM (inactive); in the experiment with MDA-MB-435, > 100 µM (inactive); with MDA-N, > 100 µM (inactive). Further, the GI50 in the experiment on NCI-H226, in the experiment on NCI/ADR-RES, in the experiment on PC-3, in the experiment on RPMI-8226, in the experiment on SR and in the experiment with T47D was > 100 µM (inactive) in each case.

Regarding `Clc1cc(N/N=C(\c2ccccc2)c2ccccn2)ncn1`, the GI50 with ACHN was 0.0266 µM (active); in the experiment with BT-549, 4.21 µM (inactive); in the experiment with CAKI-1, < 0.01 µM (active); in the experiment on DU-145, 0.5 µM (active); in the experiment with Hs-578T, 3.38 µM (inactive); in the experiment with M14, 0.0361 µM (active). The GI50 with MCF7 is < 0.01 µM (active); with MDA-MB-231, 0.0252 µM (active); with MDA-MB-435 it was 1.02 µM (active); in the experiment with MDA-N, 3.33 µM (inactive); in the experiment on NCI-H226, 0.246 µM (active); in the experiment on NCI/ADR-RES, 0.0336 µM (active). In addition, the GI50 is 0.0728 µM (active) in the experiment on PC-3, 0.0438 µM (active) in the experiment on RPMI-8226, 0.0942 µM (active) with SR and < 0.01 µM (active) in the experiment on T47D.

`O=C(NN1C(=O)CSC1c1ccc(C(F)(F)F)cc1)c1ccncc1` (stereo not given): the GI50 is > 31.6 µM (inactive) in the experiment on A498; > 100 µM (inactive) in the experiment on CAKI-1; greater than 100 µM in the experiment on HCT-15; > 100 µM (inactive) with KM-20L2; > 100 µM (inactive) in the experiment on MCF7; > 100 µM (inactive) with NCI-H226. Further, the results for the GI50 in the experiment with NCI/ADR-RES and in the experiment with RPMI-8226 were > 100 µM (inactive) and > 65.6 µM (inactive), respectively.

For the compound `O=c1oc2ccccc2n1P(=O)(Oc1ccc(Cl)cc1)n1c(=O)oc2ccccc21`, the GI50 with A498, in the experiment with ACHN, in the experiment on CAKI-1, in the experiment on KM-20L2, with NCI-H226 and with SR was > 100 µM (inactive) throughout.

Take `Nc1n[nH]c2c1Cc1c(n(Cc3ccc(Cl)cc3)c3ccccc13)C(=O)N2`: the GI50 with A498 is 13.7 µM (inactive); with BT-549, 16.5 µM (inactive); in the experiment with CAKI-1, 11.4 µM (inactive); with DU-145, 12 µM (inactive); with HCT-15, 4.12 µM; in the experiment with Hs-578T, 13.3 µM (inactive). In addition, the GI50 is 13.2 µM (inactive) in the experiment with M14; 10.3 µM (inactive) in the experiment with MCF7; 14.4 µM (inactive) in the experiment on MDA-MB-231; 3.71 µM (inactive) in the experiment with MDA-MB-435; 2.78 µM (inactive) with MDA-N; 11.1 µM (inactive) in the experiment with NCI-H226. Besides, the GI50 was 19.9 µM (inactive) in the experiment on NCI/ADR-RES, 11.2 µM (inactive) in the experiment with PC-3, 6.11 µM (inactive) in the experiment with SR and 12.3 µM (inactive) in the experiment on T47D.

As for `C=C1CC[C@@H](Br)C(C)(C)[C@]12CCC(C)(O)C(Cl)C2` (stereo not given in full), the GI50 in the experiment on A498 was 28.9 µM (inactive); in the experiment with ACHN, 20.9 µM (inactive); in the experiment on CAKI-1, 15.8 µM (inactive); in the experiment on HCT-15 it was 16 µM; with KM-20L2 it was 18.3 µM (inactive); in the experiment with NCI-H226, 16.7 µM (inactive). Moreover, in the experiment on RPMI-8226, the GI50 is 18.8 µM (inactive).

For `CCOC(=O)CCc1c(C)c2c(O)cc(O)cc2oc1=O`, the GI50 in the experiment with A498 is > 100 µM (inactive); with CAKI-1, > 100 µM (inactive); with HCT-15 it was 99.1 µM; in the experiment with KM-20L2, > 100 µM (inactive); with MCF7, > 100 µM (inactive); in the experiment with NCI-H226, > 87.9 µM (inactive). Moreover, the GI50 with NCI/ADR-RES and in the experiment with RPMI-8226 was > 100 µM (inactive) throughout.

In the case of `Nc1c(S(=O)(=O)O)cc(S(=O)(=O)O)c2ccc(/N=N/c3ccc(/C=C/c4ccc(/N=N/c5ccc6c(S(=O)(=O)O)cc(S(=O)(=O)O)c(N)c6c5O)cc4S(=O)(=O)O)c(S(=O)(=O)O)c3)c(O)c12`, the GI50 in the experiment with A498 is > 100 µM (inactive); in the experiment on HCT-15, greater than 73.5 µM; in the experiment on KM-20L2 it was 79.4 µM (inactive); with MCF7, > 100 µM (inactive); in the experiment on NCI-H226, > 100 µM (inactive); in the experiment on NCI/ADR-RES it was > 100 µM (inactive). For the same compound, in the experiment on RPMI-8226, the GI50 was > 100 µM (inactive).

For `CCOC(=O)/C=C1/C(CCCOCc2ccccc2)C2CCCC23CC2(CCN13)OCCO2` (stereo not given), the GI50 with A498 was 19.9 µM (inactive); with ACHN, 22.3 µM (inactive); in the experiment on HCT-15, 20.4 µM; in the experiment with KM-20L2 it was 22.3 µM (inactive); with NCI-H226 it was 22.6 µM (inactive); with RPMI-8226, 6.24 µM (inactive).

Turning to `CC1=C(SCCO)C(=O)c2ccccc2C1=O`, the GI50 with A498 was 16.9 µM (inactive); in the experiment on ACHN, 3.52 µM (inactive); in the experiment on BT-549 it was 17.8 µM (inactive); in the experiment with CAKI-1 it was 14.9 µM (inactive); in the experiment with DU-145 it was 16 µM (inactive); in the experiment with HCT-15, 7.35 µM. Besides, the GI50 with Hs-578T was 12.2 µM (inactive); in the experiment on M14, 14.3 µM (inactive); with MCF7 it was 3.02 µM (inactive); in the experiment on MDA-MB-231, 13.7 µM (inactive); with MDA-MB-435, 11.6 µM (inactive); with MDA-N, 5.09 µM (inactive). Moreover, the GI50 is 14.7 µM (inactive) in the experiment with NCI-H226; 14.3 µM (inactive) with NCI/ADR-RES; 11.4 µM (inactive) in the experiment with PC-3; 2.55 µM (inactive) in the experiment on RPMI-8226; 3.21 µM (inactive) in the experiment on SR; 3.21 µM (inactive) in the experiment with T47D.
